Results: paper PMC11134387, “Cancer-Stem-Cell Phenotype-Guided Discovery of a Microbiota-Inspired Synthetic Compound Targeting NPM1 for Leukemia” (JACS Au, 2024)

Key:
[1] = system: MCF-7-derived mamospheres; test: Formation of MCF-7-derived mamospheres (CSC tumorspheres); assay type: cell-based
Description: (BD Biosciences, Franklin Lakes, NJ, USA). All cells were maintained at 37 °C in a humidified incubator in an atmosphere of 5% CO2, and passaged every 2–3 days.
Additionally, they were cultured using RPMI media (Gibco/Life Technologies; Grand […]
Colonospheres, mamospheres and colony formation unit assays. 30.000 cells per well of MCF-7 cells (mamos pheres), HCT-116 cells (colonospheres) and CD34+ cells from patients (colony formation units) were seeded in serum free non- adherent medium or […]
MethoCult (Stem Cell). […]

OCI-AML3 (NPM1 C+) = test: Cell viability dose-response in AML cell line (NPM1 C+); assay type: cell-based; settings: Homo sapiens, OCI-AML-3; OCI-AML3, 48 h
Source text: (§1) One of the most paradigmatic diseases with critical involvement of CSCs is AML. Among the AML stem cell population, CD34+/CD38- are the only ones capable of inducing leukemia in vivo.[27] […] We focused on proteins that disappeared completely after treatment with the compound and whose concentration could be quantified in untreated samples. According to this profile, 340 proteins, including targets related with stemness and cancer, were identified (see Supplementary Excel file). Among them, nucleophosmin 1 (NPM1) especially attracted our attention, as it is one of the most common mutated proteins in AML.[28] To support that the inhibitory capacity of UCM-13369 observed in CSC cells (see Table S1) is mediated by NPM1, the compound was tested on OCI-AML3 and MOLM13 cell lines, as in vitro AML models bearing mutant (NPM1 C+) and wild-type (WT) protein, respectively.
(§2) The test compound was diluted in PBS.

MOLM13 (NPM1 WT) = test: Cell viability dose-response in AML cell line (NPM1 WT); assay type: cell-based; settings: Homo sapiens, MOLM-13; MOLM13, 48 h
Source text: as §1, §2

[2] = Plasma protein binding, equilibrium dialysis (RED); assay type: in vitro ADME; settings: pH 7.4, mouse serum, read-out: Plasma protein binding, bound fraction (converted)
Description: Based on the encouraging results obtained in ex vivo models of AML, we further assessed the therapeutic potential of the new NPM1 inhibitor in vivo. Prior to the evaluation of the compound in an animal model of AML, in vivo pharmacokinetic studies were addressed. Following a single intraperitoneal administration of UCM-13369 at a dose of 25 mg/kg, levels of 200–600 μg/L were detected in mouse peripheral blood up to 6 h (Figure 6A). Plasma protein binding of the compound in mouse serum was measured using an equilibrium dialysis assay, indicating a bound fraction of 83 ± 1%. Next, the efficacy of the compound was evaluated in immunodeficient mice after injection of OCI-AML3-ffLuc-GFP cells as an AML animal model. […]
coupled to a liquid nanochromatography Easy nLC 1200 System (Thermo Scientific).
Once digested, mutant NPM1 C+ C-end sample w as injected into a EASY-Spray™ C18 column, and digestion peptides were separated by using a lineal phase gradi ent (A: 0.1% formic acid in water; B: 20% acetonitrile, 0.1% formic acid in water) for 120 min. Spectra were acquired in DDA m ode, analyzing the 10 higher intensity parent ions in each cycl e.
Proteome Discoverer (Thermo Scientific) was used to align the spectra with the C-end […]
Random exclusion of AIRs was set to 2%. […] Clusters were classifi ed according to H ADDOCK score and stru ctures w er e analyzed with UCSF ChimeraX).10 […]

MCF-7 = test: Cytotoxic effect in breast tumor cell line (MTT); settings: Homo sapiens, MCF7, read-out: Viability (%) MCF-7, @5 µM (footnote d)
Description: The cytotoxic effect was determined in breast (MCF-7) and colon (HCT-116) tumor cell lines using MTT assays.
Cells were seeded at 3 × 10^4 cells/mL in 96-well plates. The test compound was diluted in PBS. […] Viability was evaluated by MTT or WST-1 and dose/response curves were performed.

COc1ccc(C2Cc3[nH]c4ccccc4c3C(CCNCC3CC3)C2N)cc1 (stereo not drawn) [4b, 4-{2-[(Cyclopropylmethyl)amino]ethyl}-2-(4-methoxyphenyl)-2,3,4,9-tetrahydro-1H-carbazol-3-amine]
inhibition at 5 µM ([1]; Homo sapiens, MCF7, @5 µM (footnote d), read-out: Inhibition of tumorsphere formation (%) MCF-7): 100% | Formation of tumorspheres (in words) ([1]; MCF-7 mamospheres and HCT-116 colonospheres, noncytotoxic concentration): completely inhibit | IC50 (OCI-AML3 (NPM1 C+)): 7.26 µM | IC50 (MOLM13 (NPM1 WT)): 10.9 µM | fraction unbound at 6 h [2]: 0.17 | viability at 5 µM (MCF-7): 96%
